≈ marks a conversion by molar mass, not a printed value. Calls of active or inactive are those of the source. The rule behind the calls is not given here.
What was measured:
[1] = test system: Jurkat; experiment: Inhibition of TNF-alpha-induced response in Jurkat cells; conditions: Homo sapiens
[2] = Cytotoxicity against Jurkat cells by Alamar blue assay; conditions: human, Jurkat cells
[3] = Aqueous solubility in sodium phosphate buffer at pH 6.5; type: physicochemical
[4] = target: T1, Inhibitor of nuclear factor kappa-B kinase subunit alpha (Homo sapiens, UniProt O15111)
T1 sequence (O15111 whole entry): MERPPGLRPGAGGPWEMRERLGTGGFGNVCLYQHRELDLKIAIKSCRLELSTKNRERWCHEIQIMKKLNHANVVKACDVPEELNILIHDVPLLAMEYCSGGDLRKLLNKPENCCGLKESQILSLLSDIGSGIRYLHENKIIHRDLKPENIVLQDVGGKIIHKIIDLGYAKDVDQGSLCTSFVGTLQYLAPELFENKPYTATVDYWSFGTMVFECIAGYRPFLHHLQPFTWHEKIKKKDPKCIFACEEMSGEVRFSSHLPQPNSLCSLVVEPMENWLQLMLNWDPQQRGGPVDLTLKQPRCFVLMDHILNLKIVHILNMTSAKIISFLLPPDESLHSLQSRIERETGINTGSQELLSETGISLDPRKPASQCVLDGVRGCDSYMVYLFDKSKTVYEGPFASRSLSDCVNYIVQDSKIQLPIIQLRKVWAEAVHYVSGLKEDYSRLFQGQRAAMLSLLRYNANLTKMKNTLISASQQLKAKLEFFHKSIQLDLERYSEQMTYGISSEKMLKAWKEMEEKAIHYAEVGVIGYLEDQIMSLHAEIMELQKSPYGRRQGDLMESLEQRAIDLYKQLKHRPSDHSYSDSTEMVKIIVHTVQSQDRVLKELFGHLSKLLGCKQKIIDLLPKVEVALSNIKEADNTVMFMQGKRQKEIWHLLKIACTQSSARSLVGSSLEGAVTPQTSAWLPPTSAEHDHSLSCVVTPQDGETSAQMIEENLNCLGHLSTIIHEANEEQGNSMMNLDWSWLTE

[5] = target: T2, Inhibitor of nuclear factor kappa-B kinase subunit beta (Homo sapiens, UniProt O14920)
T2 sequence (O14920 whole entry): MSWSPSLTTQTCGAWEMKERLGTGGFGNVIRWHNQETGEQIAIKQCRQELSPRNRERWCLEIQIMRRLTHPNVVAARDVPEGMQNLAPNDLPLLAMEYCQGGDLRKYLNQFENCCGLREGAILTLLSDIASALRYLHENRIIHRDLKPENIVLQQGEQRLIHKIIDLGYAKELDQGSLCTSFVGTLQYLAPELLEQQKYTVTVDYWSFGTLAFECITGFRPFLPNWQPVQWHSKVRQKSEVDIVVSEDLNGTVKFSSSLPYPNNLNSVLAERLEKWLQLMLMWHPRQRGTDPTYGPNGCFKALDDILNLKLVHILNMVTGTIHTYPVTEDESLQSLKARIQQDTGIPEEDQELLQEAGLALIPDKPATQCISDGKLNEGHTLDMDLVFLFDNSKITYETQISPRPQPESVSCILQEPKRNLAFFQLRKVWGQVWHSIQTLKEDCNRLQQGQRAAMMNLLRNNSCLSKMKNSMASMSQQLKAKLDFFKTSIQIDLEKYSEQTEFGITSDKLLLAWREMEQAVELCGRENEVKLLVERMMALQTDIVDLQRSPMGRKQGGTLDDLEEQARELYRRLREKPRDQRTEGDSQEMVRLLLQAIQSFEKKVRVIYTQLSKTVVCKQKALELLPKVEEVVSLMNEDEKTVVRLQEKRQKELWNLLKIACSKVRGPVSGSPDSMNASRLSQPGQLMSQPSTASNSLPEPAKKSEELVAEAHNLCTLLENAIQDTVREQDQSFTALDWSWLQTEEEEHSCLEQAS

[6] = test system: PBMC; experiment: Inhibition of LPS-induced TNFalpha production in PBMC; type: functional, cell-based; conditions: Homo sapiens
[7] = Cmax in mouse at 10 mg/kg, po; type: ADME, organism-based; parameters: dose 10 mg/kg, route oral; conditions: in vivo
[8] = test system: Liver; experiment: Metabolic stability in mouse liver microsomes; type: ADME, Microsome
[9] = AUC(1 to 4 hrs) in mouse at 10 mg/kg, po; type: ADME, organism-based; parameters: time upper 4 hr, time lower 1 hr, dose 10 mg/kg, route oral; conditions: plasma
[10] = Tmax in mouse at 10 mg/kg, po; type: ADME, organism-based; parameters: dose 10 mg/kg, route oral; conditions: in vivo
[11] = test system: Liver microsomes; experiment: Metabolic stability in human liver microsomes; type: ADME, Microsome
[12] = species: Homo sapiens; experiment: Inhibition of PKA
[13] = target: Receptor tyrosine-protein kinase erbB-2 (Homo sapiens) (UniProt P04626); experiment: Inhibition of Her2
[14] = species: Homo sapiens; experiment: Inhibition of VEGF
[15] = target: T3, Tyrosine-protein kinase ITK/TSK (Homo sapiens) (UniProt Q08881); experiment: Inhibition of EMT
T3 sequence (whole entry): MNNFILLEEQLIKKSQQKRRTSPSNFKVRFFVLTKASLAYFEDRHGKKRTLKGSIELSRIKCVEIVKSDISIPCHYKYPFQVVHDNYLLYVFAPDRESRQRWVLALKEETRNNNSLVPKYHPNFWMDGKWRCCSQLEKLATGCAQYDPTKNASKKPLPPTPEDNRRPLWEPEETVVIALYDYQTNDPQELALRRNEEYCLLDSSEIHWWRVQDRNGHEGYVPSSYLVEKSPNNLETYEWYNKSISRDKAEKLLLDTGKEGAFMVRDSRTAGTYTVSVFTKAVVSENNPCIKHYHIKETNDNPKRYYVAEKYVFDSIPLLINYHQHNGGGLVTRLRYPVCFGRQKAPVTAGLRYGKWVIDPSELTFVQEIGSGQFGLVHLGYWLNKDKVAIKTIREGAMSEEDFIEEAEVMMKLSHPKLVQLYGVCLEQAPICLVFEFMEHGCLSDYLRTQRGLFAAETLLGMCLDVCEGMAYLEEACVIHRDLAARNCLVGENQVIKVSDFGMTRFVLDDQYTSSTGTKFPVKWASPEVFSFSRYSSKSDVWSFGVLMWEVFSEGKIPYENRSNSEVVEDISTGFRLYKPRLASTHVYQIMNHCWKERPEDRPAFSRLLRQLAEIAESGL

[16] = target: T4, Inhibitor of nuclear factor kappa-B kinase subunit epsilon (Homo sapiens) (UniProt Q14164); experiment: Inhibition of IKKepsilon
T4 sequence (whole entry): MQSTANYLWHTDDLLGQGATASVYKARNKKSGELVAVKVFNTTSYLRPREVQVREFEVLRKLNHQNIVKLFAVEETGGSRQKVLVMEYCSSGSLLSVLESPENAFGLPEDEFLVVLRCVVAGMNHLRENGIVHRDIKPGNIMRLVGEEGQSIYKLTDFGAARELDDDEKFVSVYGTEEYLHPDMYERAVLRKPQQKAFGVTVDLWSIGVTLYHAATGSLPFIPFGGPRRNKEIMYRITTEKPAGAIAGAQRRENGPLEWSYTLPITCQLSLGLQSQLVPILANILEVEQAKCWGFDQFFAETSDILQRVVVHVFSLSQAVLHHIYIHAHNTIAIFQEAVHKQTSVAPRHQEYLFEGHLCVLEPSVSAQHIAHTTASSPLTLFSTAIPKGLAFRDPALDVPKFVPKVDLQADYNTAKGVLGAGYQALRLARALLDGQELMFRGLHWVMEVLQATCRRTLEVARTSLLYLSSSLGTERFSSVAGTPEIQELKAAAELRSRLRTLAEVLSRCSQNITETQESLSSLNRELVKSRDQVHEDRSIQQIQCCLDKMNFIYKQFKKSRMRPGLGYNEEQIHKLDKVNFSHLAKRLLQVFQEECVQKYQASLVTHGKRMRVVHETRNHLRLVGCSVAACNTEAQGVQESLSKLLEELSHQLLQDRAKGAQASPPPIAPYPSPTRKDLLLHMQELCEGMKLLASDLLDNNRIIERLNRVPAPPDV

[17] = target: MAP kinase p38 (Homo sapiens) (UniProt O15264+Q15759+Q16539+P53778); experiment: Inhibition of p38; type: protein assay
[18] = target: Epidermal growth factor receptor (Homo sapiens) (UniProt P00533); experiment: Inhibition of Her1
[19] = target: Insulin-like growth factor 1 receptor (Homo sapiens) (UniProt P08069); experiment: Inhibition of IGF1R
[20] = target: Tyrosine-protein kinase Lck (Homo sapiens) (UniProt P06239); experiment: Inhibition of LCK
[21] = test system: Mus musculus; experiment: Reduction of LPS-induced TNFalpha release in mouse at 30 mg/kg administered 4 hrs before LPS challenge; type: functional
[22] = Drug level in LPS-challenged mouse serum at 30 mg/kg after 2.5 hrs; type: ADME, organism-based; parameters: dose 30 mg/kg; conditions: read-out: Activity
[23] = Drug level in LPS-challenged mouse serum at 30 mg/kg after 5.5 hrs; type: ADME, organism-based; parameters: dose 30 mg/kg; conditions: read-out: Activity
[24] = test system: Mus musculus; experiment: Reduction of LPS-induced TNFalpha release in mouse at 30 mg/kg administered 1 hr before LPS challenge; type: functional; parameters: scale not given: the % may be the effect or the level left

Chain of Epidermal growth factor receptor (Homo sapiens) (P00533 whole entry): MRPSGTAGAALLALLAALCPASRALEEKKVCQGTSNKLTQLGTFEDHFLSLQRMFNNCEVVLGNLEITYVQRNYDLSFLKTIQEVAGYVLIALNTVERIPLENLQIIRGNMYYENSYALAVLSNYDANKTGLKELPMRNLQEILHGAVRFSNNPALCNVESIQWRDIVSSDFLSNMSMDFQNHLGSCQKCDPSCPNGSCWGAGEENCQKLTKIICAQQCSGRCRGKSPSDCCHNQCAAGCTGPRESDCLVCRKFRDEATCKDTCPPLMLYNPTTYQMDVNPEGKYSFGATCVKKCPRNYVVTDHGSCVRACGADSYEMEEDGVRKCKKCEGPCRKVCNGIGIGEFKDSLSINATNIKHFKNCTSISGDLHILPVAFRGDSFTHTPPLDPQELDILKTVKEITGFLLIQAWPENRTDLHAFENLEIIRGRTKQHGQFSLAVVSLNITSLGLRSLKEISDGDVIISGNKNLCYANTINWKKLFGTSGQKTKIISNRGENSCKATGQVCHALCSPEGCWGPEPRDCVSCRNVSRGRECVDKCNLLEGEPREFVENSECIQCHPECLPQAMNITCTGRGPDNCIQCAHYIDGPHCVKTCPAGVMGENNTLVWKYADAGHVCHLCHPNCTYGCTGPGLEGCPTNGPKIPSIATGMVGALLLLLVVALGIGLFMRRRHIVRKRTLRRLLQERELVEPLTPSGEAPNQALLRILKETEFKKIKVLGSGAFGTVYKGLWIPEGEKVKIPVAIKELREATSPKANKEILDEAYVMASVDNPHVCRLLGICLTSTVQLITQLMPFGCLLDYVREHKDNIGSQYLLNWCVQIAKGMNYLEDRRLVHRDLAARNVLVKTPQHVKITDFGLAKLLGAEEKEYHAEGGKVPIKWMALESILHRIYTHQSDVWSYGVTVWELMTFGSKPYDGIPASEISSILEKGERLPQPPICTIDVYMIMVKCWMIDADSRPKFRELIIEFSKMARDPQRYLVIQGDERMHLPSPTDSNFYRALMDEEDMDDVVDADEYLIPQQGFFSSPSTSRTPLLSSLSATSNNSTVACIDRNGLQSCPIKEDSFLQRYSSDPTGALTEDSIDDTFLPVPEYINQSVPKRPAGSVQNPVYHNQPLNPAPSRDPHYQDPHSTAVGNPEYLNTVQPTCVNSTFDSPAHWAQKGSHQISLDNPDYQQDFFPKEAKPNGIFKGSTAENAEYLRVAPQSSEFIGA
Chain of Receptor tyrosine-protein kinase erbB-2 (Homo sapiens) (P04626 whole entry): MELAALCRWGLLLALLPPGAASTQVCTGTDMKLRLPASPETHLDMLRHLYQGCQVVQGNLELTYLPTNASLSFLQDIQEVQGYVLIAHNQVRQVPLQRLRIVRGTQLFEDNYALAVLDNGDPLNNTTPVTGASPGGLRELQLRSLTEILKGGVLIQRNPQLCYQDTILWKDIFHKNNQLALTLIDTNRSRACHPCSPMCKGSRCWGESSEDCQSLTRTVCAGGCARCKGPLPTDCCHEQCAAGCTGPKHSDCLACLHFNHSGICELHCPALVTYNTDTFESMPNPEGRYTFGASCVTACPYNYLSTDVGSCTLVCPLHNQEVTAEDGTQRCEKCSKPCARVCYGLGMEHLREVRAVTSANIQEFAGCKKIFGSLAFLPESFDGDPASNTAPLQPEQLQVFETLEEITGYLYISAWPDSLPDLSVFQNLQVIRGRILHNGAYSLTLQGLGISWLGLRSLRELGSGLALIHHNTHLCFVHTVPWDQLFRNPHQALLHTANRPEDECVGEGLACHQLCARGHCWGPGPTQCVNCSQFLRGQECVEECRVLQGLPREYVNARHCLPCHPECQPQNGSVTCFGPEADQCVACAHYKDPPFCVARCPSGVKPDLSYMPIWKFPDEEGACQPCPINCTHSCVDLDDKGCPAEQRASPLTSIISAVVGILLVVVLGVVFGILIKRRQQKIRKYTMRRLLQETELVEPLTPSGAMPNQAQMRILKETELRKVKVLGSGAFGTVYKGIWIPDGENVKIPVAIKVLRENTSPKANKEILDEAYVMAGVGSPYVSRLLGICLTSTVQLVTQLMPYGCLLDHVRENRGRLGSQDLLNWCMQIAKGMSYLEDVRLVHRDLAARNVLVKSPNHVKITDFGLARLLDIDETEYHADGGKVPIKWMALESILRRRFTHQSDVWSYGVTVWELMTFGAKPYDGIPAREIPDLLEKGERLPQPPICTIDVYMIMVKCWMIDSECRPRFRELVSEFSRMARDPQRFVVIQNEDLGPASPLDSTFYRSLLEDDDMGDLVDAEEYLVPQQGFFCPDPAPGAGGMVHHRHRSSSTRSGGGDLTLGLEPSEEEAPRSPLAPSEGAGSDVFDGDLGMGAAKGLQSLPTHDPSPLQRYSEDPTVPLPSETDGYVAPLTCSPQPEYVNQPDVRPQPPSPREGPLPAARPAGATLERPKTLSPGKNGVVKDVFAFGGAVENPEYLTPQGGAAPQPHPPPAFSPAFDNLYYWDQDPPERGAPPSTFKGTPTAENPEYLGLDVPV
Chain of Tyrosine-protein kinase Lck (Homo sapiens) (P06239 2-509 limits assumed): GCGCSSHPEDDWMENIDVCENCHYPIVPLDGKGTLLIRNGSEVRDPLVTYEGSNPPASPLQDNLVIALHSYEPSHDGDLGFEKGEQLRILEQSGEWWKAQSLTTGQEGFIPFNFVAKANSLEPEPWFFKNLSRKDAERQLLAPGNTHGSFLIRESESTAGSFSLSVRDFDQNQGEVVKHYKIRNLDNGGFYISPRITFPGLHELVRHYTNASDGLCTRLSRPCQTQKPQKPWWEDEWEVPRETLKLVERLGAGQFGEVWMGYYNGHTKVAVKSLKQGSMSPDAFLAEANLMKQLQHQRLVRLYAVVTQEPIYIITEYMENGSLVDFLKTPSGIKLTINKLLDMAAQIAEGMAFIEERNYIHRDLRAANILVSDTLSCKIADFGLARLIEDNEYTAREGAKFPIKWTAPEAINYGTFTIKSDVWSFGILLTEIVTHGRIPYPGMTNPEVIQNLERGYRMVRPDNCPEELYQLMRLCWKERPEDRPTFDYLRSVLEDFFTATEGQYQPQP
Chain of Insulin-like growth factor 1 receptor (Homo sapiens) (P08069 31-736 limits assumed): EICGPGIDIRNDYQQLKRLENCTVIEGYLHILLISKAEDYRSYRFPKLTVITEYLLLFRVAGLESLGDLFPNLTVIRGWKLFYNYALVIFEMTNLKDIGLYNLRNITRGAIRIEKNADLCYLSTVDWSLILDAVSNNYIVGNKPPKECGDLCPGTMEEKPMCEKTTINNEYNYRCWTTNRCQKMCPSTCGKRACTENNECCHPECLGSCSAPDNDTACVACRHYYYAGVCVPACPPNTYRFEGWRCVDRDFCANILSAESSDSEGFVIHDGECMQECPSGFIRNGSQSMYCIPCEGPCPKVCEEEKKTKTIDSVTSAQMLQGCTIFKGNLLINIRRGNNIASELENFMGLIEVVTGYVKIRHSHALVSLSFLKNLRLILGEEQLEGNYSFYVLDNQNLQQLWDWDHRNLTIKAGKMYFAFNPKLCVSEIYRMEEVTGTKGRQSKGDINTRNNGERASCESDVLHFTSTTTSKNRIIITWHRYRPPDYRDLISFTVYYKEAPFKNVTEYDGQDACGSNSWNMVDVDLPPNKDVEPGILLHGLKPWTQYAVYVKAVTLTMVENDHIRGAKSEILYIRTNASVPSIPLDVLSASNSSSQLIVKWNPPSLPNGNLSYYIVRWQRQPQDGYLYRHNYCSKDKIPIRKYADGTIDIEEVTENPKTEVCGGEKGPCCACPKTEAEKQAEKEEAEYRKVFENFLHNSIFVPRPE
Chain of Insulin-like growth factor 1 receptor (Homo sapiens) (P08069 741-1367 limits assumed): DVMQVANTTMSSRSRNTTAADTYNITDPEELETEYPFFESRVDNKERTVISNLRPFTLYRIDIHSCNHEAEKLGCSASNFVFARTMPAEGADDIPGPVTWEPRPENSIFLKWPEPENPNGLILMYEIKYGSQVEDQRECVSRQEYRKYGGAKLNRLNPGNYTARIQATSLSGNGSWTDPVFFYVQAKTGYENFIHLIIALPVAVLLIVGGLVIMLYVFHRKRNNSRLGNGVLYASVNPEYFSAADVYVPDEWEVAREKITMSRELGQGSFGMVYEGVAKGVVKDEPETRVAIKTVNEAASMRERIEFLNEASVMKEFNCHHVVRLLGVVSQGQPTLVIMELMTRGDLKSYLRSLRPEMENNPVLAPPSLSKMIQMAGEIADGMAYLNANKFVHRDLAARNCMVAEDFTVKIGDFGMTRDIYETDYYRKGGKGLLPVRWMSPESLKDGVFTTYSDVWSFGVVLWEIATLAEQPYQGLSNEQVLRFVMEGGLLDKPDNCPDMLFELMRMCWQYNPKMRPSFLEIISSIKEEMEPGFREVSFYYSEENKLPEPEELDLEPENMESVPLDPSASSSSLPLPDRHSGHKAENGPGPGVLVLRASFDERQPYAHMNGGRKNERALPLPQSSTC

SMILES	EC50 [1] [µM]	IC50 [4] [µM]	IC50 [5] [µM]	Cmax [7] [µM]	Stability [8] [nmol/mg/min]	AUC(0-t) [9] [µM·h]	Tmax [10] [min]	Stability [11] [nmol/mg/min]	Activity [16]	CC50 [2] [µM]	EC50 [6] [µM]	other results
CCNC(=O)C(N)Cc1cccc(-c2cc3nc(NC)c4ncc(C)n4c3s2)c1 (racemic)	1.05	1.01	0.59	8.6	0.145	9.89	30	0.069	–	71	0.14	solubility [3]: 44 µg/mL (≈ 108 µM)
CNc1nc2cc(-c3ccccc3)sc2n2c(C)cnc12	1.35	1.09	0.027	–	–	–	–	–	inactive	> 100	–	Activity [12]: inactive; solubility [3]: < 1 µg/mL; Activity [13]: inactive; Activity [14]: inactive; Activity [15]: inactive; Activity [17]: inactive; Activity [18]: inactive; Activity [19]: inactive; Activity [20]: inactive
Cc1ccc2nc(NCCN)c3ncc(C)n3c2c1 [BMS-345541]	13.3	–	–	1.4	0.016	3.8	30	< 0.01	–	100	0.8	Activity [21]: 70%; concentration at 2.5 h [22]: 7.6 µM; concentration at 5.5 h [23]: 4.2 µM; Activity [24]: 82%
CNc1nc2cc(-c3cccc(CC(N)=O)c3)sc2n2c(C)cnc12	0.36	0.68	0.008	0.29	0.13	0.63	30	0.062	–	> 100	0.065	–
CNc1nc2cc(-c3cccc(CCNC(N)=O)c3)sc2n2c(C)cnc12	0.55	0.13	0.018	–	–	–	–	–	inactive	> 100	–	–

More lines, main results first:

EC50 [1] [µM]	IC50 [4] [µM]	IC50 [5] [µM]	Cmax [7] [µM]	Stability [8] [nmol/mg/min]	AUC(0-t) [9] [µM·h]	Tmax [10] [min]	Stability [11] [nmol/mg/min]	Activity [16]	SMILES	CC50 [2] [µM]	EC50 [6] [µM]	other results
0.47	0.33	0.036	–	–	–	–	–	–	CNC(=O)C(N)Cc1cccc(-c2cc3nc(NC)c4ncc(C)n4c3s2)c1 (racemic)	68	–	solubility [3]: 42 µg/mL (≈ 106 µM)
13.4	3.13	0.04	–	–	–	–	–	inactive	Cc1cnc2c(NCCN3CCCCC3)nc3cc(-c4ccccc4)sc3n12	15	–	Activity [12]: inactive; Activity [13]: inactive; Activity [14]: inactive; Activity [15]: inactive; Activity [17]: inactive; Activity [18]: inactive; Activity [19]: inactive; Activity [20]: inactive
5.88	0.22	0.0085	–	–	–	–	–	inactive	CNc1nc2cc(-c3cccc(CN)c3)sc2n2c(C)cnc12	19	–	–
0.34	0.26	0.043	0.15	0.221	0.38	30	0.066	–	CNc1nc2cc(-c3cccc(CNC(N)=O)c3)sc2n2c(C)cnc12	> 100	0.068	–
1.81	0.39	0.013	5.2	0.07	9.6	60	0.017	–	CNc1nc2cc(-c3cccc(CCNCC(N)=O)c3)sc2n2c(C)cnc12	> 100	1.37	Activity [21]: inactive; concentration at 2.5 h [22]: 14.3 µM; concentration at 5.5 h [23]: 2.1 µM; Activity [24]: 49%
> 100	0.91	0.022	–	–	–	–	–	inactive	Cc1cnc2c(NCCN)nc3cc(-c4ccccc4)sc3n12	77	–	Activity [12]: inactive; Activity [13]: inactive; Activity [14]: inactive; Activity [15]: inactive; Activity [17]: inactive; Activity [18]: inactive; Activity [19]: inactive; Activity [20]: inactive
